Columns and labels:
[1] = target: T1, hMR1^R9H (Homo sapiens, UniProt Q95460, R31H); assay: In vitro refolding of MR1 R9H mutant with ligand; format: binding
T1 construct: plasmids encoding for the extracellular domains of MR1, β2m, and the AF-7 TCRα and TCRβ chains; made in house; host or cells: Escherichia coli BL21(DE3), inclusion bodies
Description: We then tested the effect of the RF catabolites on the expression of two mutant versions of MR1 termed MR1^R9H ([Howson et al., 2020]) and MR1^K43A ([Reantragoon et al., 2013]). First, we tested the MR1^R9H mutant ([Howson et al., 2020]) which represents a rare, natural human polymorph. […] When C1R. […] Next, we tested sought to understand how the previously characterised Lys43A mutation affects ligand binding. […] While this is in line with the ability of these ligands to bind MR1, the reason for MR1^K43A cell surface accumulation is less clear. The most likely explanation is that these ligands bind ER-resident MR1^K43A, in line with our data using wild-type MR1; however, because the K43A mutation results in spontaneous MR1 surface egress, the presence of these stabilising ligands promotes enhanced trafficking and/or retention at the cell surface. We cannot rule out however that the ligands may also bind directly to surface MR1^K43A and slow down the recycling from cell surface.
Escherichia coli BL21(DE3) cells were transformed with plasmids encoding for the extracellular domains of MR1, β2m, and the AF-7 TCRα and TCRβ chains ([Kjer-Nielsen et al., 2012]; [Patel et al., 2013]; [Wang et al., 2022a]). The proteins were then expressed, and the inclusion bodies were purified, cleaned, and used for refolding. […]

[2] = system: THP-1.MR1 cells; assay: Cell surface MR1 quantification by flow cytometry, THP-1.MR1; format: cell-based; settings: THP-1.MR1, 3 h
Description: Next, we investigated whether these RF catabolites can impact MR1 cell surface expression in both MR1-transduced B cell lymphoblastoid (C1R.MR1) and monocytic (THP-1.MR1) cell lines (Fig. 2). Here, the cells were pulsed with 1–200 μM of RF or the RF catabolites, and the cell surface levels of MR1 were quantified by flow cytometry ([Awad et al., 2020a]; [Keller et al., 2017]). Cell viability was unaffected, even at highest concentrations of the catabolites, as depicted in Fig. S2A. […] No impact on the MR1 surface level was observed when the parental C1R cells were incubated with these RF catabolites, probably due to the low basal surface MR1 level whose further reduction becomes undetectable by the anti-MR1 antibody (Fig. S2B). The MR1 downregulation seen in C1R.MR1 cells was specific to MR1 as the level of HLA-A*02:01 was not affected after pulsing C1R-A2 with the ligands (Fig. S2C). […]
The level of MR1 expressed on the cell surface was measured after the exposure to the investigated ligands as previously described ([Awad et al., 2020a]; [Wang et al., 2022a]). […] The PE fluorescence intensity reflects the surface MR1 level. The data was acquired with an LSRFortessa X-20 (BD Biosciences) and Diva software (BD Biosciences) and analyzed using FlowJo software (BD Biosciences).

T1 sequence (Q95460 23-302 R31H): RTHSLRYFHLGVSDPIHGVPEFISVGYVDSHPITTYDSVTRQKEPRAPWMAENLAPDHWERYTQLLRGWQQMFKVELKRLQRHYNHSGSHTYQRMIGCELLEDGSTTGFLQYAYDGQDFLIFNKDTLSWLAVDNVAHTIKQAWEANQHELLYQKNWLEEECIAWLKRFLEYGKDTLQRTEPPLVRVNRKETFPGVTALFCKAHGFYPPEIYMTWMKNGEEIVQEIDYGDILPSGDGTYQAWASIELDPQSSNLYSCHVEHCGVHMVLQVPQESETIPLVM
T1 sequence (P61769 21-119 partner): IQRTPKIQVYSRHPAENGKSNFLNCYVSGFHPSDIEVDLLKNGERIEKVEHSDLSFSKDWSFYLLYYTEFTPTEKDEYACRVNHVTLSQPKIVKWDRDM

Compound	refolding with hMR1^R9H in solution [1]	MR1 cell surface expression [2]
Cc1cc2nc3[nH]c(=O)[nH]c(=O)c3nc2cc1C [Lumichrome, 7,8-dimethylalloxazine]	did not refold	–
Cc1cc2nc3c(=O)[nH]c(=O)nc-3n(C)c2cc1C [Lumiflavin]	–	downregulated MR1

— doi:10.1101/2025.07.20.665728 (bioRxiv, 2025)
